{
  "source": "paper PMC7591920",
  "about": "“A protein tertiary structure mimetic modulator of the Hippo signalling pathway” (Nature Communications, 2020)",
  "key": {"RKO cells [1]": {"test_system": "RKO cells", "assay": "Total drug content in RKO cells by UPLC-MS", "settings": "25 µM compound; for Total drug content, Measured Concentration: RIPA total lysis, diluted lysate; for Total drug content, Measured Concentration / Total drug content / Measured Conc: UPLC-MS; for Total drug content, Measured Concentration / Total drug content: n = 2; for Total drug content: total lysis", "description": "(§1) Peptides were incubated in RKO cells (ATCC, #CRL-2577) as follows: Experiment 1: RKO cells were incubated in 25 µM compound for 90 min and 24 h. Experiment 2: RKO cells were incubated in 25 µM for 30 min or 72 h. Following peptide incubation, the cells were washed twice with PBS, trypsinized and pelleted. The pellets were lysed in RIPA buffer (Perkin Elmer) for total lysis, or CelLytic NuCLEAR Extraction Kit (SIGMA) for subcellular fractionation. Total protein quantification BCA (Pierce) was performed prior to MS analysis to normalize sample data. Total and fractionated cell lysates were analysed by quantitative UPLC-MS utilizing a Waters Xevo TQ-XS (WBA0259) and an Acquity UPLC system from Waters consisting of Sample Manager (M16UFL953M), Acquity PDA (F17UPD457A), Column Oven (E17CMP703G) and Binary Solvent Manager (E17BUR621G). […] Chromatograms of the samples were treated similarly, and by linear regression (1/x) an in-cell concentration was established in the re-suspended cell lysate using the Waters MassLynx TargetLynx^TM product."}, "RKO cells [2]": {"test_system": "RKO cells", "assay": "Sub-cellular (cytoplasmic, nuclear) peptide concentration in RKO cells by UPLC-MS", "settings": "for Sub-cellular drug content, Cytoplasm, Measured concentration / Sub-cellular drug content, Cytoplasm, nMol / Sub-cellular drug content, Nuclear, Measured concentration / Sub-cellular drug content, Nuclear, nMol / Sub-cellular drug content, Cytoplasm, pMol.mg-1 / Sub-cellular drug content, Nuclear, pMol.mg-1: 25 µM compound, n = 2; for Sub-cellular drug content, Cytoplasm, pMol.mg-1 / Sub-cellular drug content, Nuclear, pMol.mg-1: per mg protein; for Cytoplasmic concentration of peptide: cytoplasmic fraction; for Nuclear concentration of peptide: nuclear fraction; for Cytoplasmic concentration, raw data / Nuclear concentration, raw data: sheet Figure 3c, 25 µM unlabelled peptide; for Intracellular concentration: mass spectrometry", "description": "as §1"}, "[3]": {"settings": "90 minutes, fractionation, UPLC-MS"}, "[4]": {"settings": "24 hours, fractionation, UPLC-MS"}},
  "note": "Peptide text beside a SMILES is read from it.",
  "data": [
    {"smiles": "CC[C@H](C)[C@H](NC(=O)[C@H](CCC(N)=O)NC(=O)[C@H](CC(C)C)NC(=O)[C@H](Cc1c[nH]c2ccccc12)NC(=O)[C@@H](NC(=O)[C@H](CC(=O)O)NC(=O)CNC(=O)[C@H](CC(C)C)NC(=O)[C@H](C)NC(=O)[C@H](CCCCN)NC(=O)[C@H](C)NC(=O)[C@H](Cc1ccccc1)NC(=O)[C@H](Cc1c[nH]cn1)NC(=O)[C@H](CC(=O)O)NC(=O)[C@H](CC(=O)O)NC(=O)[C@@H](NC(=O)[C@H](CO)NC(C)=O)C(C)C)[C@@H](C)O)C(=O)N[C@@H](CCCCN)C(=O)N[C@@H](C)C(=O)N[C@@H](C)C(N)=O", "note": "[compound 4] (Ac-SVDDHFAKALGDTWLQIKAA-NH2)", "values": [
      {"measurement": "Total drug content, Measured Concentration", "setting": "RKO cells [1]; 90 minutes", "result": "1133.521 ± 133.393", "unit": "nM"},
      {"measurement": "Total drug content", "setting": "RKO cells [1]; 90 minutes", "result": "1.7 ± 0.2001", "unit": "nmol"},
      {"measurement": "Total drug content, Measured Concentration", "setting": "RKO cells [1]; 24 hours", "result": "322.145 ± 33.657", "unit": "nM"},
      {"measurement": "Total drug content", "setting": "RKO cells [1]; 24 hours", "result": "0.4832 ± 0.05049", "unit": "nmol"},
      {"measurement": "Measured Conc", "setting": "RKO cells [1]; total drug content, 90 minutes, dilution factor 10, replicate 1", "result": 1266.91, "unit": "nM"},
      {"measurement": "Measured Conc", "setting": "RKO cells [1]; total drug content, 90 minutes, dilution factor 10, replicate 2", "result": 1000.13, "unit": "nM"},
      {"measurement": "pMol/mg of protein, Mean", "setting": "RKO cells [1]; total drug content, 90 minutes, mean of 2 replicates", "result": "1685.1 pMol/mg of protein"},
      {"measurement": "Measured Conc", "setting": "RKO cells [1]; total drug content, 24 hours, dilution factor 10, replicate 1", "result": 355.802, "unit": "nM"},
      {"measurement": "Measured Conc", "setting": "RKO cells [1]; total drug content, 24 hours, dilution factor 10, replicate 2", "result": 288.488, "unit": "nM"},
      {"measurement": "pMol/mg, Mean", "setting": "RKO cells [1]; total drug content, 24 hours, mean of 2 replicates", "result": 331.25, "unit": "pMol/mg"},
      {"measurement": "Sub-cellular drug content, Cytoplasm, Measured concentration", "setting": "RKO cells [2]; [3]", "result": "< LLOQ"},
      {"measurement": "Sub-cellular drug content, Cytoplasm, nMol", "setting": "RKO cells [2]; [3]", "result": "< LLOQ"},
      {"measurement": "Sub-cellular drug content, Nuclear, Measured concentration", "setting": "RKO cells [2]; [3]", "result": "< LLOQ"},
      {"measurement": "Sub-cellular drug content, Nuclear, nMol", "setting": "RKO cells [2]; [3]", "result": "< LLOQ"},
      {"measurement": "Sub-cellular drug content, Cytoplasm, pMol.mg-1", "setting": "RKO cells [2]; [3]", "result": "< LLOQ"},
      {"measurement": "Sub-cellular drug content, Nuclear, pMol.mg-1", "setting": "RKO cells [2]; [3]", "result": "< LLOQ"},
      {"measurement": "Sub-cellular drug content, Cytoplasm, Measured concentration", "setting": "RKO cells [2]; [4]", "result": "< LLOQ"},
      {"measurement": "Sub-cellular drug content, Cytoplasm, nMol", "setting": "RKO cells [2]; [4]", "result": "< LLOQ"},
      {"measurement": "Sub-cellular drug content, Nuclear, Measured concentration", "setting": "RKO cells [2]; [4]", "result": "< LLOQ"},
      {"measurement": "Sub-cellular drug content, Nuclear, nMol", "setting": "RKO cells [2]; [4]", "result": "< LLOQ"},
      {"measurement": "Sub-cellular drug content, Cytoplasm, pMol.mg-1", "setting": "RKO cells [2]; [4]", "result": "< LLOQ"},
      {"measurement": "Sub-cellular drug content, Nuclear, pMol.mg-1", "setting": "RKO cells [2]; [4]", "result": "< LLOQ"},
      {"measurement": "Cytoplasmic concentration of peptide", "setting": "RKO cells [2]; UPLC-MS, raw data replicate 1", "result": "<LLOQ"},
      {"measurement": "Cytoplasmic concentration of peptide", "setting": "RKO cells [2]; UPLC-MS, raw data replicate 2", "result": "<LLOQ"},
      {"measurement": "Nuclear concentration of peptide", "setting": "RKO cells [2]; UPLC-MS, raw data replicate 1", "result": "<LLOQ"},
      {"measurement": "Nuclear concentration of peptide", "setting": "RKO cells [2]; UPLC-MS, raw data replicate 2", "result": "<LLOQ"},
      {"measurement": "Cytoplasmic concentration, raw data", "setting": "RKO cells [2]; UPLC-MS, replicate 1", "result": "<LLOQ"},
      {"measurement": "Nuclear concentration, raw data", "setting": "RKO cells [2]; UPLC-MS, replicate 1", "result": "<LLOQ"},
      {"measurement": "Cytoplasmic concentration, raw data", "setting": "RKO cells [2]; UPLC-MS, replicate 2", "result": "<LLOQ"},
      {"measurement": "Nuclear concentration, raw data", "setting": "RKO cells [2]; UPLC-MS, replicate 2", "result": "<LLOQ"},
      {"measurement": "Detection in cytoplasmic and nuclear fractions", "setting": "RKO cells [2]; unlabelled peptide 25 µM, 90 min and 24 h, fractionation, UPLC-MS", "result": "not detected in subcellular fractions"},
      {"measurement": "Intracellular concentration", "setting": "RKO cells [2]; unlabelled peptide 25 µM, 90 min incubation, n = 2 biological replicates", "result": "< LLOQ"},
      {"measurement": "Intracellular concentration", "setting": "RKO cells [2]; unlabelled peptide 25 µM, 24 hours incubation, N = 2 biological replicates", "result": "< LLOQ"}
    ]}
  ]
}
